Laboratory results from patent EP2924039A1, “2-Amino-1-phenyl-pyrrolo[3,2-b]quinoxaline-3-carboxamide derivates” (Universität Zürich, priority 2014, dated 2015).
pKd: −log10 of the molar value.

Columns and labels:
EphA3 = biological target: T1, EphA3 (Homo sapiens, UniProt P29320); assay: Surface Plasmon Resonance (SPR) determination of Kd; assay type: binding; settings: immobilized EphA3, 20 mM PBS pH 7.4, 150 mM NaCl
T1 construct: A clone of EphA3 kinase domain (residues: 606-947); made in house; host or cells: Escherichia coli BL21 (DE3)
T1 sequence (P29320 606-947): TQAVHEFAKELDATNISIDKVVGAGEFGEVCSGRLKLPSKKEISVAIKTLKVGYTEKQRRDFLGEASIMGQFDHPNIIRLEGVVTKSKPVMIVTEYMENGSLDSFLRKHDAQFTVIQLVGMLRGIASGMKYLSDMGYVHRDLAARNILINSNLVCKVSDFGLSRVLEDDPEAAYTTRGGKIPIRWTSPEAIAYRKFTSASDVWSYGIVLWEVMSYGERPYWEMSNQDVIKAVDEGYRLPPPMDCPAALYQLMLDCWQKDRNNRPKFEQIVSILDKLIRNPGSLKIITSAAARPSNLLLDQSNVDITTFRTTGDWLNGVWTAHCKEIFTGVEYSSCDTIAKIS
Text: The EphA3-compound dissociation constant (Kd) in Table 2 were obtained following the experimental protocol of Jecklin M.C., et al (Journal of Molecular Recognition 22(4), 319-329), subject to the following modifications: • 1) EphA3 protein was purified as per the protocol given in the "Experimental Section" of Lafleur K., Dong J., Huang D., Caflisch A. and C. Nevado (Journal of Medicinal Chemistry, 2013; 56(1):84-96), under the header "Protein Expression and Purification". Protein concentration was determined using a NanoDrop 1000 from Thermo Scientific (Witec AG, Littau LU, Switzerland). • 2) Under "Instrumentation and reagents": 20 mM PBS pH 7.4, 150 mM NaCl was used as running buffer. • 3) Under "Enzyme immobilization": Following activation of flow cells, 300 µg/ml of EphA3 in immobilization buffer was injected over a 2 minute time period. Residual activated groups on the surface were then blocked by a 7 minute injection of 1 M ethanolamine, pH 8.5. […] Each suspension was then analyzed, commencing from the lowest and proceeding to the highest concentration, and then run in duplicate from the highest to the lowest concentration. During each binding cycle, the compound suspension was injected during a time period of 6 minutes at a flow rate of 5 µl/min and dissociation was monitored for 900 s. […]

[1] = In vivo pharmacokinetics in blood plasma; design: species or system male CD-1 (ICD) mice; settings: for T1/2 (min, PO) / Cmax / Tmax: 5 mg/kg, PO; for Bio-availability (%): [AUClast(PO)*Dose(IV)] / [AUClast(IV)*Dose(PO)], PO 5 mg/kg, IV 1 mg/kg; for Tmax: read-out: Tmax (min, PO) (converted)
Description: Evaluation of the in vivo pharmacokinetics of a subset of compounds was performed through analysis of compound concentration in the blood plasma of male CD-1 (ICD) mice (each weighing 20-30g) over a 24 hour period (at time points of 3, 10, 30, 60, 120, 240, 360 and1440 minutes) following a single oral (PO) and intravenous (IV, in tail vein) administration of a compound dose corresponding to 5 mg of compound/kg of mouse body weight (PO) and 1 mg of compound/kg of mouse body weight (IV). For IV dosing, each compound was formulated as a clear solution in DMSO/Solutol® HS 15/phosphate-buffered saline, pH 7.4 (PBS) (5/5/90, v/v/v). For PO dosing, compounds were formulated as a homogeneous suspension in DMSO/1% methylcellulose (5/95, v/v).
At the relevant time point, blood samples (300-400 µL) were collected from the mice under general inhalant anaesthesia by cardiac puncture and stored on ice in 0.6 mL polypropylene heparin-lithium-coated tubes. Within 1 hour of collection, each tube was centrifuged at 2500 G for 15 minutes at 4°C and harvested plasma stored at -20°C.
Compound concentration in plasma at each time point was determined following acetonitrile precipitation of each sample followed by HPLC-MS analysis performed in triplicates, i.e., based on the mean of the compound concentration at that time point in blood samples of three mice.
T1/2 is the terminal elimination half-life following IV and PO dosing (obtained from non-compartmental analysis (NCA) of the plasma data using WinNonLin). Tmax is the time following PO administration at which the maximum concentration is observed (obtained from non-compartmental analysis (NCA) of the plasma data using WinNonLin). Cmax corresponds to the concentration observed at Tmax following PO administration (obtained from non-compartmental analysis (NCA) of the plasma data using WinNonLin). Bioavailability was calculated as the ratio of: [AUClast(PO)*Dose(IV)] / [AUClast(IV)*Dose(PO)] where AUClast is the area under the curve (estimated by summing incremental areas of a series of trapezoids) of a plot of compound concentration versus time, up to the time of the last observation that is greater than the limit of quantification. Table 6: In vivo pharmacokinetics (min: minutes)

[2] = tested on: A498 (kidney cancer) cells; assay: Cell culture and GI50 determination (resazurin), A-498; assay type: cell-based; settings: Homo sapiens, A-498, 48h incubation
Description: Krek (Institute of Cell Biology, ETH Zurich) were cultured in Dulbelcco's modified Eagle's medium (DMEM) supplemented with 10% (v/v) fetal bovine serum. K562 leukemia cells obtained from Dr. Silvio Hemmi (Institute of Molecular Life Sciences, UZH) were cultured using RPMI medium supplemented with 5% (v/v) fetal bovine serum. All the media was additionally supplemented with 100 units/mL of penicillin, 100µg/mL of streptomycin, 4.5 g/L glucose, 0.11g/L sodium pyrubate and 2mM glutamine and the cells were grown at 37°C in 5% CO2 atmosphere with 80% relative humidity.
The old media was removed, the cells were washed with PBS (phosphate-buffered saline) and fresh media was added. […] Control cells were treated with the same DMSO concentrations. […] After 3 hours, the fluorescence was quantified using a fluorescence microplate reader (Biotek, FLx800™) at the respective excitation and emission wavelength of 560 and 590 nm. Resazurin becomes fluorescent under mitochondrial reduction and its emission directly correlates with the metabolic stability of the cells. […] All measurements were performed at least in triplicate (see table 1).

[3] = male, CD-1 (ICD), mouse, mice plasma

Row | SMILES | pKd (EphA3) | T1/2 (min, IV) ([1]; IV, 1 mg/kg, mice plasma) | T1/2 (min, PO) ([1]; mice plasma) | Bio-availability (%) [1] | Cmax [1, 3] | Tmax [1, 3] | half-life ([1]; male, CD-1 (ICD), mouse, IV, 1 mg/kg, mice plasma, read-out: T1/2 (min, IV)) | GI50 [2]
1 | NC(=O)c1c(N)n(-c2cccc(C(=O)Nc3cccc(C(F)(F)F)c3)c2)c2nc3ccccc3nc12 [Compound 10c, 2-amino-1-(3-((3-(trifluoromethyl)phenyl)carbamoyl)phenyl)-1H-pyrrolo[2,3-b]quinoxaline-3-carboxamide] | 8.43 | 1.1 h | 2.78 h | 30% | 164 ng/mL | 1 h | – | –
2 | NC(=O)c1c(N)n(-c2cccc(NC(=O)c3cccc(C(F)(F)F)c3)c2)c2nc3ccccc3nc12 [Compound 10d, 2-amino-1-(3-(3-(trifluoromethyl)benzamido)phenyl)-1H-pyrrolo[2,3-b]quinoxaline-3-carboxamide] | 7.40 | – | 4.95 h | 10% | 45 ng/mL | 2 h | 1.18 h | 13400 nM
